From patent US20230173059A1, “TOLL-LIKE RECEPTOR (TLR) AGONIST NANOPARTICLES AND USES THEREOF” (The Board of Trustees of the Leland Stanford Junior …, priority 2020, published 2023)
Where “and” joins values, the source holds several entries; their conditions need not be identical. Equal values may be shown once.

What was measured:
SARS-CoV-2 spike protein = conditions: in vivo, sc
TLR9 = molecular target: T1, TLR9 (Mus musculus, UniProt Q9EQU3); assay: In vitro Raw-Blue reporter assay (CpG); type: cell-based; conditions: 100,000 Raw-Blue cells, 21 h, CpG-C 3.1-29 μg/mL, absorbance 655 nm
T1 construct: host or cells: Raw-Blue (NF-kB-SEAP) mouse macrophage reporter cells
T1 sequence (Q9EQU3 26-1032): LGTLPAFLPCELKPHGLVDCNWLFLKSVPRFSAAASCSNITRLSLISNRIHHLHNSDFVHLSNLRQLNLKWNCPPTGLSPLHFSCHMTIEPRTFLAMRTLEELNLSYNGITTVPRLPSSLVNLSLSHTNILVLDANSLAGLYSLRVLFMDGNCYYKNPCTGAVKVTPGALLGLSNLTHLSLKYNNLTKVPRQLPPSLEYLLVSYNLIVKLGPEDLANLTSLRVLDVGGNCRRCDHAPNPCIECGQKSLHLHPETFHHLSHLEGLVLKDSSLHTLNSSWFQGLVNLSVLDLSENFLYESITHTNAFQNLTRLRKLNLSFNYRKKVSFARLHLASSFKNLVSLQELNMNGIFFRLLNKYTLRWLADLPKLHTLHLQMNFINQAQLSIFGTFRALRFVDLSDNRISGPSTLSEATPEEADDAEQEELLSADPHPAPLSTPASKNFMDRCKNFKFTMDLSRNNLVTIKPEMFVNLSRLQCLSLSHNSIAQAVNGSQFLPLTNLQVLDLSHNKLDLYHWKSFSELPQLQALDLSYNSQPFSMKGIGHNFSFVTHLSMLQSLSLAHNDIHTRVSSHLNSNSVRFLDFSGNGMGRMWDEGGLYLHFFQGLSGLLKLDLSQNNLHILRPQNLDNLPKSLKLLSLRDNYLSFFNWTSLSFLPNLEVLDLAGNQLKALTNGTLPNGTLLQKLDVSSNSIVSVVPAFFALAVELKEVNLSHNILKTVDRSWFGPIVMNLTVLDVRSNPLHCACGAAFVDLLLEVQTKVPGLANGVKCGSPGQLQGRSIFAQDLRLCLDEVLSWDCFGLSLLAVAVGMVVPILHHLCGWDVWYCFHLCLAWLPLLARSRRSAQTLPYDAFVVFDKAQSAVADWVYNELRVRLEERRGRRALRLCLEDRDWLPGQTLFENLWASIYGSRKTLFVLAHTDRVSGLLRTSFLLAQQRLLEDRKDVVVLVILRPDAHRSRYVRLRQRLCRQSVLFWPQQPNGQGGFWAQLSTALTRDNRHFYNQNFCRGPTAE
Description: In vitro Raw-Blue reporter assay. The Raw-Blue (NF-kB-SEAP) reporter cell line (Invivogen, raw-sp) was used to evaluate the valency effect of TLR9 agonist conjugated to PEG-PLA NPs. The cells were cultured at 37° C. with 5% CO2 in DMEM supplemented with L-glutamine (2 mM), D-glucose (4.5 g/L), 10% HI-FBS, and penicillin (100 U/mL)/streptonmcin (100 μg). Every other passage, zeocin (100 μg/mL) was added to the culture medium. Serial dilutions of soluble CpG-B and CpG-C and of the different CpG-B and CpG-C NPs formulations were added to a 96-well tissue culture treated plate to achieve final concentrations between 30 and 3.1 μg/mL of TLR9 agonist. Non-conjugated PEG-PLA NPs were used as a negative control. […] Manufacturer instructions were followed for SEAP quantification, and absorbance levels detected at 655 nm after 3 h incubation with QUANTI-Blue Solution (Invivogen). […]
In these assays, Raw-Blue cells were incubated for 21 h with either the free form, or the NPs tethered form (10%, 20%, 30%, 50%) of CpG-C at a range of CpG concentrations (3.1-29 μg/mL) in order to generate concentration dependent activation curves (FIG. 38B). […] To ensure a correct and consistent dosing of CpG NPs throughout different experiments, we constructed a standard curve for both classes of CpG-NPs (FIGS. 40A, 40B) by measuring the absorbance of different concentration of CpG at 280 nm. […]

[1] = Cargo and polymer diffusivity (FRAP, Stokes-Einstein, MSDM); type: physicochemical; conditions: for Diffusivity in 1:5 gel / Diffusivity in 2:10 gel: FRAP; for Diffusivity in PBS: calculated with Stokes-Einstein from RH
From the text: To characterize the dynamics of vaccine exposure expected from the vaccine-loaded gels, we assessed the diffusivities of both vaccine cargo in each of the two gel formulations of interest using fluorescence recovery after photobleaching (FRAP) experiments (FIG. 9F. FIG. 16). The PNP gels are unique compared to traditional covalently cross-linked gels as their bonds are dynamic and continuously rearrange^28. This feature results in self-diffusion of the polymer network over time within the intact hydrogel^40,41. OVA's hydrodynamic radius (RH) in PBS is reported in the literature to be 3.2 nm^42, corresponding to a diffusivity value, D, of 76.6 μm^2/s. Using multi-angle light scattering (MALS) we measured Poly(I:C)'s hydrodynamic radius to be much larger, with an RH of 34.2 nm, corresponding to a D value of 7.2 μm^2/s. This difference in hydrodynamic size results in OVA having more than a 10-fold greater diffusivity than Poly(I:C) in PBS (FIG. 9G) and a 100-fold difference in a typical covalently cross-linked hydrogel (FIG. 17). […] The measured diffusivities for all experiments can be found in Table 6.
FRAP Analysis: Alexa Fluor 647 conjugated OVA (Thermo Fisher Scientific), rhodamine conjugated Poly(I:C) (Invivogen), and rhodamine conjugated HPMC-C12 were used to visualize the diffusion of the cargo and gel. Samples were photobleached with a 50 μm diameter for the region of interest (ROI). Different tests (n=5) were made for 3 different samples from the same batch at different locations of the sample. A spot was bleached with a pixel dwell time of 177.32 μs. 500 post-bleach frames were recorded at 1 frame/s to form the recovery exponential curve. The diffusion coefficient was calculated as^52:
Where the constant γD=τ1/2τD, with τ1/2 being the half-time of the recovery. τD the characteristic diffusion time, both yielded by the ZEN software, and ω the radius of the bleached ROI (25 μm).
The diffusivity of cargo in PBS was calculated using the Stokes-Einstein Law Equation for diffusion^53 where kB is Boltzmann's constant, T is temperature in Kelvin, η is solvent viscosity, and R is solute hydrodynamic radius
The diffusivity of cargo in a model covalent PEG gel was calculated using the Multiscale Diffusion Model (MSDM) assuming 25° C., 5% volume fraction, and 35 nm mesh size^54.
FRAP Analysis: Alexa Fluor 647 conjugated OVA (Thermo Fisher Scientific), rhodamine conjugated Poly(I:C) (Invivogen), and rhodamine conjugated HPMC-C12 were used to visualize the diffusion of the cargo and gel. The samples were placed in a sterile 0.18 mm thick glass bottom dish (Ibidi). An Inverted Zeiss LSM 780 Laser Scanning Confocal Microscope (Germany) using a Plan-Apochromat 20×/0.8 M27 objective lens was used for FRAP measurements. To excite the fluorescent Alexa Fluor 647, a 5 mW 633 nm He—Ne laser was employed at 2%, and the emitted fluorescence was detected by Alexa Fluor 647 specific band pass filter (638-756 nm). To excite the fluorescent rhodamine, a 20 mW 561 nm diode pumped solid state laser was used at 2%, and the emitted fluorescence was detected by rhodamine specific band pass filter (415-638 nm). We used pixel dwell time 2.55 μs which took 390.98 ms to finish every scan. Samples were photobleached with a 405 nm diode laser, plus the 633 nm laser in the case of the Alexa Fluor, and a 514 nm argon laser and the 561 nm laser in the case of the rhodamine. All lasers were set al 100% intensity for the bleaching, with a 20-40 μm diameter for the region of interest (ROI). To avoid any extra noise, the high voltage was limited to be 700 V. Different tests (n=5) were made for 3 different samples from the same batch at different locations of the sample. For each test, 10 control pre-bleach images were captured at 1 frame/s. A spot was bleached with a pixel dwell time of 177.32 μs. 500 post-bleach frames were recorded at 1 frame/s to form the recovery exponential curve. The pixel size was set to be 1.66 μm. The diffusion coefficient was calculated as^62: […]

[2] = reported in the literature; cited from earlier work

Molecule: CpG-B 1826 [soluble CpG-B]
- anti-spike total IgG endpoint titers (SARS-CoV-2 spike protein): stronger response than the CpG-B NP

Molecule: CpG-C 2395 (DNA TCGTCGTTTTCGGCGCGCGCCG; chemistry not given here) [free CpG-C]
- log EC50 (TLR9): 1.15 log10(μg/mL)

Molecule: Poly(I:C)
- Diffusivity in 1:5 gel [1]: 1.7 ± 0.3 μm^2/s
- Diffusivity in 2:10 gel [1]: 2.4 ± 0.1 μm^2/s
- Diffusivity in PBS [1]: 7.2 μm^2/s
- hydrodynamic radius (RH) ([1]; multi-angle light scattering (MALS)): 34.2 nm

B1: ovalbumin (protein, UniProt P01012 2-386, looked up)
Ovalbumin: GSIGAASMEFCFDVFKELKVHHANENIFYCPIAIMSALAMVYLGAKDSTRTQINKVVRFDKLPGFGDSIEAQCGTSVNVHSSLRDILNQITKPNDVYSFSLASRLYAEERYPILPEYLQCVKELYRGGLEPINFQTAADQARELINSWVESQTNGIIRNVLQPSSVDSQTAMVLVNAIVFKGLWEKAFKDEDTQAMPFRVTEQESKPVQMMYQIGLFRVASMASEKMKILELPFASGTMSMLVLLPDEVSGLEQLESIINFEKLTEWTSSNVMEERKIKVYLPRMKMEEKYNLTSVLMAMGITDVFSSSANLSGISSAESLKISQAVHAAHAEINEAGREVVGSAEAGVDAASVSEEFRADHPFLFCIKHIATNAVLFFGRCVSP
notes: model antigen protein, MW=43 kDa
- Diffusivity in 1:5 gel [1]: 5.76 μm^2/s and 6 ± 1 μm^2/s
- Diffusivity in 2:10 gel [1]: 3.2 μm^2/s and 3.2 ± 0.6 μm^2/s
- Diffusivity in PBS [1]: 76.6 μm^2/s
- hydrodynamic radius (RH) in PBS [2]: 3.2 nm
